{
  "source": "paper PMC6211230",
  "about": "“Assessment of the antiproliferative and apoptotic roles of sulfonamide carbonic anhydrase IX inhibitors in HeLa cancer cell line” (Journal of Enzyme Inhibition and Medicinal Chemistry, 2018)",
  "system": "HeLa cells",
  "assay": "Annexin V-FITC/PI flow cytometry apoptosis",
  "assay_type": "cell-based, human",
  "conditions": "from 10 μM, 24 h",
  "procedure": "The apoptotic effect of the substances was explored with the commercial FITC Annexin V Apoptosis Detection Kit I (BD Biosciences, New Jersey, USA) according to the manufacturer’s protocol. The cells were plated on 6-well plates (5 × 10^5 cells/well), and following 24 h incubation, sulfonamide compounds at concentrations of 10 and 25 μM were administered, followed by incubation for 24 h. The cells were raised by trypsin handling, and transferred into new tubes within 1X binding buffer, as 1 × 10^6 in each tube, which was incubated for 15 min at room temperature. 5 μL of fluorochrome-conjugated Annexin V and 5 μL of Propidium Iodide dyes were then added. 100 μl 1X binding buffer was added to the cells, and they were then centrifuged at 1200 rpm, for 5 min. Finally, the cells were analysed in flow cytometry (BD Via, New Jersey, USA).",
  "data": [
    {"molecule": "NS(=O)(=O)c1ccc(CCN=Cc2cc(Cl)ccc2O)cc1", "note": "[Compound A-1]", "values": [
      {"measurement": "early apoptosis", "value": 48.7, "unit": "%"}
    ]}
  ]
}
